Measurements reported in patent US7090971B2, “Transglutaminase has intrinsic kinase activity” (priority 2004, dated 2006).
Entries after “also recorded” stand apart in the source; their conditions may differ.

How the values were obtained:
[1] = test system: MCF-7 cell membranes; experiment: Phosphorylation of IGFBP-3 by MCF-7 cell membranes; type: biochemical, human; conditions: cystamine 20 μM, MDC 200 μM (FIG. 2B)
Method: (§1) Polystyrene tube were coated with streptavidin and blocked with bovine serum albumin, washed in saline and stored at −20° C. until used. Biotinylated IGFBP-3 (500 ng) was added in streptavidin-coated tubes for 2 h on ice. At the end of incubation, excess, unbound IGFBP-3 was removed. Tubes were placed on ice and phosphorylation reaction mixture containing 20 mM Tris buffered saline pH 7.5, 10 mM Mg/ATP, 60 μCi/ml ^32P-ATP was added. Reaction was initiated by the addition of membrane fraction and allowed to proceed for 30 min at 30° C. Reaction was stopped by addition of SDS-PAGE sample buffer, boiled for 7–10 min and analyzed on 11% gel. Subsequently gels were dried and processed for autoradiography. In some cases 2 μU of pure TG2 (Sigma-Aldrich, MO) or histidine-tagged full length human TG2 expressed using baculovirus expression system in insect cells and purified by Ni(II)-nitroacetate agarose chromatography was used to phosphorylate IGFBP-3 in presence or absence of TG2 specific inhibitors. […] At the end of incubation, reaction mixture was aspirated, reaction was stopped by addition of sample buffer and analyzed on 11% gel. […]
We assessed the effect of the TG2 and ROCK2 inhibitors on phosphorylation of IGFBP-3 by cell monolayers. […] After termination of the incubation, the IGFBP-3 was analyzed by SDS-PAGE and autoradiography (FIG. 2A). […]

[2] = target: T1, guinea pig liver TG2 (UniProt P08587); experiment: IGFBP-3 kinase activity of purified guinea pig liver TG2; type: biochemical; conditions: cystamine 20 μM, MDC 200 μM (FIG. 4A)
T1 construct: Both TG2 purified from guinea pig liver and recombinant human TG2 expressed in insect cells were able to phosphorylate IGFBP-3; purchased Sigma-Aldrich, MO; host or cells: guinea pig liver (tissue-purified)
T1 sequence (P08587 1-690): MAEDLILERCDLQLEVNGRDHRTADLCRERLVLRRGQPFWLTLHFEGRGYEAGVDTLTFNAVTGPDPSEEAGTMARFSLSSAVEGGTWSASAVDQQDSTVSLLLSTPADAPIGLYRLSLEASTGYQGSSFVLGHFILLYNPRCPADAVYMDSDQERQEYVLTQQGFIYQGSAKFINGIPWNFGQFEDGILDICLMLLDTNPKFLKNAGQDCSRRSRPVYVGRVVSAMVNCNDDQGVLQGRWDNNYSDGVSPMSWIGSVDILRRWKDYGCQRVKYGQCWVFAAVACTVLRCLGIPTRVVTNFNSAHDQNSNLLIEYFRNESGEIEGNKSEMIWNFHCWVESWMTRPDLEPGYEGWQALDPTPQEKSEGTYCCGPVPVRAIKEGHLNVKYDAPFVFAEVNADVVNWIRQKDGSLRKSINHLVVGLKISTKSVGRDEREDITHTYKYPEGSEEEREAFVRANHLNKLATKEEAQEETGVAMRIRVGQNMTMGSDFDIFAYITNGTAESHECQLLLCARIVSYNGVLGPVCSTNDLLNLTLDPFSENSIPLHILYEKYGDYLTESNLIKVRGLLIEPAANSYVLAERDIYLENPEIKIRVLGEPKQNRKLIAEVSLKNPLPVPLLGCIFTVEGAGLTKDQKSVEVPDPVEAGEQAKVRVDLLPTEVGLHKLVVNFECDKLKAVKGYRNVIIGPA
Method: as §1, with “inhibitors. In experiments where cell monolayers were used to phosphorylate IGFBP-3, cells were grown in 24-well culture plate to near confluence and washed with PBS to remove residual media and serum.” for “inhibitors.”

[3] = target: T2, TG2 (Homo sapiens, UniProt P21980); experiment: IGFBP-3 kinase activity of recombinant human TG2; type: biochemical; set-up: histidine-tagged full length human TG2 expressed using baculovirus expression system in insect cells; histidine tag; made in house; host or cells: insect cells (baculovirus expression system); conditions: for effect on phosphorylation of IGFBP-3 by human recombinant TG2: cystamine 20 μM, MDC 200 μM (FIG. 4A)
T2 sequence (P21980 1-687): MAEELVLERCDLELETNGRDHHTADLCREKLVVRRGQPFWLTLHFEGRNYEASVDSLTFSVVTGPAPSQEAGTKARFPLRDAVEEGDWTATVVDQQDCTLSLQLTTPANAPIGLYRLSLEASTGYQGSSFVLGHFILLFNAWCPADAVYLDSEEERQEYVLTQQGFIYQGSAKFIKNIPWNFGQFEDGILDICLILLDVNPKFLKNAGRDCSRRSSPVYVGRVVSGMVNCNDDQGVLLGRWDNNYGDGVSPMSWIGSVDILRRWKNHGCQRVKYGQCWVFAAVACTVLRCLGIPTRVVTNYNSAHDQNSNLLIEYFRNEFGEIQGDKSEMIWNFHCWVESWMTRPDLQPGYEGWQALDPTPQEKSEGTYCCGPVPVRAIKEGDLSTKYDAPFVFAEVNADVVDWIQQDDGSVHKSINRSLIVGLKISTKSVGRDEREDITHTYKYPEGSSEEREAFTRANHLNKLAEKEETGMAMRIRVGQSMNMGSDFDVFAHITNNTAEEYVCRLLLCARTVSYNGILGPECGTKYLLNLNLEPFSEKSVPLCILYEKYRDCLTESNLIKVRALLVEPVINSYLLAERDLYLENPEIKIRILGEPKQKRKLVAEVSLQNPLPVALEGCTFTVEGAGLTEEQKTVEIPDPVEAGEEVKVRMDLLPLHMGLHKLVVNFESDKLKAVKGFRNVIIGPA
Method: (§2) Polystyrene tube were coated with streptavidin and blocked with bovine serum albumin, washed in saline and stored at −20° C. until used. Biotinylated IGFBP-3 (500 ng) was added in streptavidin-coated tubes for 2 h on ice. At the end of incubation, excess, unbound IGFBP-3 was removed. Tubes were placed on ice and phosphorylation reaction mixture containing 20 mM Tris buffered saline pH 7.5, 10 mM Mg/ATP, 60 μCi/ml ^32P-ATP was added. Reaction was initiated by the addition of membrane fraction and allowed to proceed for 30 min at 30° C. Reaction was stopped by addition of SDS-PAGE sample buffer, boiled for 7–10 min and analyzed on 11% gel. Subsequently gels were dried and processed for autoradiography. In some cases 2 μU of pure TG2 (Sigma-Aldrich, MO) or histidine-tagged full length human TG2 expressed using baculovirus expression system in insect cells and purified by Ni(II)-nitroacetate agarose chromatography was used to phosphorylate IGFBP-3 in presence or absence of TG2 specific inhibitors. In experiments where cell monolayers were used to phosphorylate IGFBP-3, cells were grown in 24-well culture plate to near confluence and washed with PBS to remove residual media and serum. Phosphorylation was then performed in […] reaction mixture as above, containing 1 μg IGFBP-3 for 10 min at 37° C. At the end of incubation, reaction mixture was aspirated, reaction was stopped by addition of sample buffer and analyzed on 11% gel. In some experiments, cell monolayer were treated with TG2 inhibitor for 30 min prior to the phosphorylation reaction.
Purified guinea pig liver TG2 and human recombinant TG2 both were able to phosphorylate IGFBP-3 (FIG. 4A). This process was inhibited cystamine and MDC. The related binding protein IGFBP-5 was also phosphorylated by TG2 whereas IGFBP-1 was not phosphorylated by TG2 (FIG. 4B). […] Fibronectin, another reported substrate for TG2 (Akimov and Belkin, 2001, J. Cell Sci., 114:2989–3000), was not phosphorylated by this enzyme under the conditions we used to phosphorylate IGFBP-3 (FIG. 4B). […]

[4] = test system: T47D cell membranes; experiment: Phosphorylation of IGFBP-3 by T47D cell membranes; type: biochemical, human; conditions: cystamine 20 μM (10 and 20 μM in FIG. 2C), MDC 200 μM, ROCK2 inhibitor 2 and 5 μM (FIG. 2B, 2C)
Method: as §2
We assessed the effect of the TG2 and ROCK2 inhibitors on phosphorylation of IGFBP-3 by cell monolayers. We have previously shown that intact washed cells were able to phosphorylate IGFBP-3 immobilized on polystyrene tubes (Mishra and Murphy, 2003). T47D cell monolayers were incubated for 30 minutes in the presence of various concentrations of cystamine, an inhibitor of TG2. The washed cell monolayers were incubated with IGFBP-3 in the presence of ^32P-ATP for 10 minutes at 37° C. After termination of the incubation, the IGFBP-3 was analyzed by SDS-PAGE and autoradiography (FIG. 2A). […] Similar experiments were undertaken utilizing membrane preparations from both T47D and MCF-7 cells. As reported previously both T47D and MCF-7 cells were able to phosphorylate IGFBP-3. This process was inhibited by cystamine and MDC in both cells lines (FIG. 2B). DMSO the vehicle in which MDC was dissolved had no effect. Since TG2 has been found in association with ROCK2, a Rho-kinase (Singh et al., 2001, EMBO J., 20:2413–2423), and ROCK2 was present in the affinity purified cell membrane fractions, we investigated the effect of the ROCK2 inhibitor, R (+)trans-N-(4-pyridyl)-4-(1aminoethyl)-cyclohexanecarboxamide dihydrochloride. […]

[5] = target: T2, TG2; experiment: Cross-linking activity of recombinant TG2 (polymerization of IGFBP-3); type: biochemical; set-up: histidine-tagged full length human TG2 expressed using baculovirus expression system in insect cells; histidine tag; made in house; host or cells: insect cells (baculovirus expression system); conditions: recombinant TG2, increasing calcium concentration (FIG. 4C)
[6] = test system: T47D cell monolayers; experiment: Phosphorylation of IGFBP-3 by T47D cell monolayers; type: cell-based, human
Method: as §2
We assessed the effect of the TG2 and ROCK2 inhibitors on phosphorylation of IGFBP-3 by cell monolayers. We have previously shown that intact washed cells were able to phosphorylate IGFBP-3 immobilized on polystyrene tubes (Mishra and Murphy, 2003). T47D cell monolayers were incubated for 30 minutes in the presence of various concentrations of cystamine, an inhibitor of TG2. […] After termination of the incubation, the IGFBP-3 was analyzed by SDS-PAGE and autoradiography (FIG. 2A). […]

[7] = target: T2, TG2; experiment: IGFBP-3 kinase activity of anti-TG2 immunoprecipitates from solubilized membranes; type: biochemical; set-up: endogenous in cells; host or cells: T47D or MCF-7 cell membranes (anti-TG2 immunoprecipitate on protein A-agarose); conditions: cystamine 20 μM, ROCK2 inhibitor 5 μM (FIG. 3C)
Method: To 200 μl of solubilized membranes from T47D of MCF-7 cells, 10 μl of anti-TG2 goat polyclonal antiserum (Upstate Biotechnology, Lake Placid, N.Y.) and incubated for 1 h at 4° C. 20 μl of protein A-agarose (Pierce) was added and further incubated on a rotating device overnight at 4° C. At the end of incubation the pellet was washed four times in ice cold PBS. The supernatant was discarded and the pellet was resuspended in 50 μl of kinase buffer. 10 μl of the resuspended sample was used for phosphorylation of 500 ng of IGFBP-3. The samples were analyzed by SDS-PAGE, autoradiography and immunoblotting with TG2 antiserum.
We next examined the effect of TG2 and ROCK2 antisera on IGFBP-3 kinase activity present in cell membrane preparations. Antiserum against TG2 but not ROCK2 antiserum was able to immunodeplete IGFBP-3 kinase activity from membrane preparations (FIG. 3A). When the immunoprecipitates were analyzed for kinase activity, the precipitates obtained with TG2 antiserum but not those obtained with ROCK2 antiserum had kinase activity. Furthermore, the IGFBP-3 kinase activity present in the immunoprecipitates was inhibited by cystamine but not by the ROCK2 inhibitor.

[8] = T47D cell monolayers pre-incubated 30 minutes with inhibitor, 32P-ATP, 10 minutes at 37° C., autoradiography (FIG. 2A)

SMILES | effect on phosphorylation of IGFBP-3 by MCF-7 cell membranes [1] | effect on phosphorylation of IGFBP-3 by purified guinea pig liver TG2 [2] | effect on phosphorylation of IGFBP-3 by human recombinant TG2 [3] | effect on phosphorylation of IGFBP-3 by T47D cell membranes [4] | effect on phosphorylation of IGFBP-3 by T47D cell membranes ([4]; listed as monodansyl cadaverine) | effect of increasing calcium concentration on polymerization of IGFBP-3 (cross-linking activity of TG2) [5] | effect of increasing calcium concentration on kinase activity of TG2 ([3]; recombinant TG2, increasing calcium concentration (FIG. 4C)) | effect on IGFBP-3 kinase activity of breast cancer cell monolayers ([6]; breast cancer cell monolayers (FIG. 2A)) | effect on IGFBP-3 kinase activity present in anti-TG2 immunoprecipitates [7] | concentration at which complete inhibition of IGFBP-3 phosphorylation was apparent [6, 8] | concentration at which inhibition of IGFBP-3 phosphorylation was seen (as little as) [6, 8]
CN(C)c1cccc2c(S(=O)(=O)NCCCCCN)cccc12 [MDC, monodansyl cadaverine] | inhibited | inhibited | inhibited | inhibited | abolished |  |  |  |  |  | 
[Ca+2] [calcium] |  |  |  |  |  | increase in polymerization | decrease in the kinase activity; also recorded: inhibited in a concentration dependent fashion |  |  |  | 
C[C@@H](N)[C@H]1CC[C@H](C(=O)Nc2ccncc2)CC1.Cl.Cl (relative stereo) [ROCK2 inhibitor, R (+)trans-N-(4-pyridyl)-4-(1aminoethyl)-cyclohexanecarboxamide dihydrochloride] |  |  |  | no effect |  |  |  | no effect | not |  | 
NCCSSCCN [cystamine] | inhibited | inhibited | inhibited | inhibited; also recorded: abolished |  |  |  |  | inhibited | 50 µM | 20 µM
